Measurements from PMC10281575, “PfCRT mutations conferring piperaquine resistance in falciparum malaria shape the kinetics of quinoline drug binding and transport” (PLOS Pathogens, 2023).
Where “and” joins values, the source holds several entries; their conditions need not be identical. Equal entries are not always repeated.

Target: T1, PfCRT^Dd2_F145I (Plasmodium falciparum, UniProt Q8IBZ9, A220S/F145I/I356T/K76T/M74I/N326S/N75E/Q271E/R371I)
T1 construct: expressed in transfected cells; host or cells: Xenopus laevis oocytes injected with in vitro transcribed RNA (pSP64T)
T1 sequence (Q8IBZ9 1-424 M74I/N75E/K76T/F145I/A220S/Q271E/N326S/I356T/R371I): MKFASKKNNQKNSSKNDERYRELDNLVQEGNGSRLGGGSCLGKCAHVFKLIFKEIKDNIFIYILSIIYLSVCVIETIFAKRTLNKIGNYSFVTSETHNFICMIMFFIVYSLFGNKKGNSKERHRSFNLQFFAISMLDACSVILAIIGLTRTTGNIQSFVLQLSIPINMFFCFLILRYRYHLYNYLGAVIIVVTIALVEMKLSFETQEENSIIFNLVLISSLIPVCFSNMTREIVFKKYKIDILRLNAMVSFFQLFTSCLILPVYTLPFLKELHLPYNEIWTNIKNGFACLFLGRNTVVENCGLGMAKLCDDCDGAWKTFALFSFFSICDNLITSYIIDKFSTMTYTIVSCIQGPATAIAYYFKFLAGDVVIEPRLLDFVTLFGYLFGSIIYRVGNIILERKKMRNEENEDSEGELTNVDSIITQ
Test: Competition kinetics of drug transport (radiolabeled substrate plus cold inhibitor), PfCRT^Dd2_F145I-expressing oocytes
Type: cell-based
Experimental: To further characterize the kinetic relationship between CQ and PPQ, we performed a series of competition reactions. To this end, water-injected oocytes and PfCRT-expressing oocytes were incubated in medium containing one of seven concentrations of radio-labeled CQ and one of six concentrations of cold PPQ for 60 min before the amount of radio-labeled CQ uptake was determined. The rate of PfCRT-mediated CQ uptake was calculated for each condition by subtracting the corresponding value obtained for water-injected oocytes from those of PfCRT-expressing oocytes. The results were analyzed as a function of the CQ concentration (Fig 4A) and 16 different models of substrate competition were globally fit to the data by the least-squares method, using Python. The models were ranked, according to their Akaike information criterion difference (ΔAICC) and their Akaike weight (Fig 4B), with the most plausible model being the one with the lowest AICC (ΔAICC = 0) and the highest Akaike weight.
A complementary set of experiments was undertaken to investigate the kinetic mechanism by which PfCRT^Dd2_F145I accepts CQ and PPQ (Fig 6). […] These included a global fit of the substrate competition data to the 16 kinetic models (Fig 6), analysis of the secondary plots (Vmax,app and Vmax,app/KM,app as a function of the inhibitor concentration) (Fig 7A), a fractional velocity plot analysis (Fig 7B) and a comparison of the experimental data with the modelled data using the noncompetitive inhibition equation (Fig 7C to 7F). […] The fractional velocity plot illustrated the partial character of the noncompetitive inhibition mechanism by yielding a partiality factor β^CQ = 0.31 ± 0.04, by which PPQ reduces the transport velocity of CQ (Fig 7B). […] A 3D model of the kinetics between PfCRT^Dd2_F145I, CQ and PPQ, and analyses of the residuals as a function of substrate and inhibitor concentrations confirmed that the model was also an appropriate explanation for the mutant transporter (Fig 7C to 7F).
Drug transport assays were performed as previously described. Briefly, measurements of radiolabeled drug uptake were made over 1 h, unless otherwise specified. […] Where specified, one or more unlabeled drugs were also present at the indicated concentrations. The direction of drug transport in the assays is from the extracellular medium (pH 6) into the oocyte cytosol (pH 7.2), which corresponds to the efflux of CQ or PPQ from the acidic digestive vacuole (pH 5.2) into the parasite cytosol (pH 7.2). The uptake assays were terminated by removing the oocytes from the reaction medium and washing them three times with 2 mL of ice-cold ND96 buffer. Each oocyte was transferred to a separate scintillation vial and lysed by the addition of 200 μL of a 5% SDS solution. The radioactivity in the sample was measured using a liquid scintillation analyser Tri-Carb 4910 TR (PerkinElmer). Water-injected oocytes were analyzed in parallel as a negative control. The buffer from each condition was measured in duplicate in parallel to each experiment to transform counts per minute into pmol of drug. Drug uptake attributable to PfCRT was determined by subtracting the background uptake from water-injected oocytes from that of PfCRT-expressing oocytes. In all cases, at least three independent experiments were performed on oocytes from different frogs, and for each condition in an experiment, measurements were made from 10 oocytes per treatment.
The following equations were adopted from Segel (1993), and the reader is referred to that text for the assumptions made in the author’s approach in the derivation of each equation [31]. The concentration of substrate is denoted as [S1] and the concentration of the inhibiting substrate is denoted as [S2]. KS1 and KS2 are the dissociation constants for the respective substrate-protein complexes.
Analyses of the kinetic data were performed using SigmaPlot version 13.0 and Python. […]

In the case of `Clc1ccc2c(N3CCN(CCCN4CCN(c5ccnc6cc(Cl)ccc56)CC4)CC3)ccnc2c1` [PPQ, piperaquine], the “PfCRTDd2_F145I-mediated PPQ transport” value (10 µM PPQ, 0 µM CQ) is reported as 11.21 pmol oocyte-1 h-1 and 11.88 pmol oocyte-1 h-1 and 9.04 pmol oocyte-1 h-1, the “PfCRTDd2_F145I-mediated PPQ transport” value (10 µM PPQ, 50 µM CQ) is reported as 9.4 pmol oocyte-1 h-1 and 8.02 pmol oocyte-1 h-1 and 11.57 pmol oocyte-1 h-1 and the “PfCRTDd2_F145I-mediated PPQ transport” value (10 µM PPQ, 125 µM CQ) is reported as 7.93 pmol oocyte-1 h-1 and 10.99 pmol oocyte-1 h-1 and 8.58 pmol oocyte-1 h-1. For the same compound, the “PfCRTDd2_F145I-mediated PPQ transport” value (10 µM PPQ, 200 µM CQ) was 8.51 pmol oocyte-1 h-1 and 7.12 pmol oocyte-1 h-1 and 10.43 pmol oocyte-1 h-1, the “PfCRTDd2_F145I-mediated PPQ transport” value (10 µM PPQ, 400 µM CQ) was 7.41 pmol oocyte-1 h-1 and 6.45 pmol oocyte-1 h-1 and the “PfCRTDd2_F145I-mediated PPQ transport” value (50 µM PPQ, 25 µM CQ) was 33.88 pmol oocyte-1 h-1 and 40.73 pmol oocyte-1 h-1 and 51.89 pmol oocyte-1 h-1. For the same compound, the “PfCRTDd2_F145I-mediated PPQ transport” value (50 µM PPQ, 50 µM CQ) was 40.89 pmol oocyte-1 h-1 and 44.12 pmol oocyte-1 h-1 and 39.8 pmol oocyte-1 h-1, the “PfCRTDd2_F145I-mediated PPQ transport” value (50 µM PPQ, 125 µM CQ) was 36.42 pmol oocyte-1 h-1 and 31.75 pmol oocyte-1 h-1 and 38.13 pmol oocyte-1 h-1 and the “PfCRTDd2_F145I-mediated PPQ transport” value (50 µM PPQ, 400 µM CQ) was 17.03 pmol oocyte-1 h-1 and 21.16 pmol oocyte-1 h-1. For the same compound, the “PfCRTDd2_F145I-mediated PPQ transport” value (100 µM PPQ, 0 µM CQ) was 60.49 pmol oocyte-1 h-1 and 74.22 pmol oocyte-1 h-1 and 56.91 pmol oocyte-1 h-1, the “PfCRTDd2_F145I-mediated PPQ transport” value (100 µM PPQ, 25 µM CQ) was 59.02 pmol oocyte-1 h-1 and 57.16 pmol oocyte-1 h-1 and 56.63 pmol oocyte-1 h-1 and the “PfCRTDd2_F145I-mediated PPQ transport” value (100 µM PPQ, 50 µM CQ) was 63 pmol oocyte-1 h-1 and 53.26 pmol oocyte-1 h-1 and 51.28 pmol oocyte-1 h-1. The “PfCRTDd2_F145I-mediated PPQ transport” value (100 µM PPQ, 125 µM CQ) was 52.64 pmol oocyte-1 h-1 and 47.96 pmol oocyte-1 h-1 and 53 pmol oocyte-1 h-1, the “PfCRTDd2_F145I-mediated PPQ transport” value (100 µM PPQ, 200 µM CQ) was 45.31 pmol oocyte-1 h-1 and 44.84 pmol oocyte-1 h-1 and 60.71 pmol oocyte-1 h-1 and the “PfCRTDd2_F145I-mediated PPQ transport” value (100 µM PPQ, 400 µM CQ) was 44.06 pmol oocyte-1 h-1 and 56.54 pmol oocyte-1 h-1. For the same compound, the “PfCRTDd2_F145I-mediated PPQ transport” value (200 µM PPQ, 25 µM CQ) was 102.24 pmol oocyte-1 h-1 and 78.79 pmol oocyte-1 h-1 and 91.29 pmol oocyte-1 h-1, the “PfCRTDd2_F145I-mediated PPQ transport” value (200 µM PPQ, 50 µM CQ) was 94.74 pmol oocyte-1 h-1 and 73.08 pmol oocyte-1 h-1 and 99.27 pmol oocyte-1 h-1 and the “PfCRTDd2_F145I-mediated PPQ transport” value (200 µM PPQ, 125 µM CQ) was 78.46 pmol oocyte-1 h-1 and 108.53 pmol oocyte-1 h-1 and 73.37 pmol oocyte-1 h-1. For the same compound, the “PfCRTDd2_F145I-mediated PPQ transport” value (200 µM PPQ, 400 µM CQ) was 85.32 pmol oocyte-1 h-1 and 58.78 pmol oocyte-1 h-1, the “PfCRTDd2_F145I-mediated PPQ transport” value (300 µM PPQ, 0 µM CQ) was 115.45 pmol oocyte-1 h-1 and 117.23 pmol oocyte-1 h-1 and the “PfCRTDd2_F145I-mediated PPQ transport” value (300 µM PPQ, 25 µM CQ) was 115.11 pmol oocyte-1 h-1 and 88.35 pmol oocyte-1 h-1 and 102.98 pmol oocyte-1 h-1. The “PfCRTDd2_F145I-mediated PPQ transport” value (300 µM PPQ, 50 µM CQ) was 85.96 pmol oocyte-1 h-1 and 103.73 pmol oocyte-1 h-1 and 93.02 pmol oocyte-1 h-1, the “PfCRTDd2_F145I-mediated PPQ transport” value (300 µM PPQ, 125 µM CQ) was 84.14 pmol oocyte-1 h-1 and 103.07 pmol oocyte-1 h-1 and 81.24 pmol oocyte-1 h-1 and the “PfCRTDd2_F145I-mediated PPQ transport” value (300 µM PPQ, 200 µM CQ) was 75.68 pmol oocyte-1 h-1 and 80.62 pmol oocyte-1 h-1 and 99.18 pmol oocyte-1 h-1. For the same compound, the “PfCRTDd2_F145I-mediated PPQ transport” value (300 µM PPQ, 400 µM CQ) was 77.19 pmol oocyte-1 h-1 and 102 pmol oocyte-1 h-1, the “PfCRTDd2_F145I-mediated PPQ transport” value (400 µM PPQ, 0 µM CQ) was 130.32 pmol oocyte-1 h-1 and 101.99 pmol oocyte-1 h-1 and the “PfCRTDd2_F145I-mediated PPQ transport” value (400 µM PPQ, 25 µM CQ) was 115.19 pmol oocyte-1 h-1 and 112.21 pmol oocyte-1 h-1 and 107.93 pmol oocyte-1 h-1. The “PfCRTDd2_F145I-mediated PPQ transport” value (400 µM PPQ, 50 µM CQ) was 86.8 pmol oocyte-1 h-1 and 110.06 pmol oocyte-1 h-1 and 116.13 pmol oocyte-1 h-1, the “PfCRTDd2_F145I-mediated PPQ transport” value (400 µM PPQ, 125 µM CQ) was 93.73 pmol oocyte-1 h-1 and 100.31 pmol oocyte-1 h-1 and 96.89 pmol oocyte-1 h-1 and the “PfCRTDd2_F145I-mediated PPQ transport” value (400 µM PPQ, 200 µM CQ) was 75.94 pmol oocyte-1 h-1 and 96.5 pmol oocyte-1 h-1 and 106.38 pmol oocyte-1 h-1. For the same compound, the “PfCRTDd2_F145I-mediated PPQ transport” value (400 µM PPQ, 400 µM CQ) was 105.94 pmol oocyte-1 h-1 and 73.74 pmol oocyte-1 h-1, the “PfCRTDd2_F145I-mediated PPQ transport” value (500 µM PPQ, 0 µM CQ) was 124.15 pmol oocyte-1 h-1 and 149.83 pmol oocyte-1 h-1 and the “PfCRTDd2_F145I-mediated PPQ transport” value (500 µM PPQ, 25 µM CQ) was 134.09 pmol oocyte-1 h-1 and 105.12 pmol oocyte-1 h-1 and 107.54 pmol oocyte-1 h-1. The “PfCRTDd2_F145I-mediated PPQ transport” value (500 µM PPQ, 50 µM CQ) was 102.67 pmol oocyte-1 h-1 and 147.39 pmol oocyte-1 h-1 and 78.85 pmol oocyte-1 h-1, the “PfCRTDd2_F145I-mediated PPQ transport” value (500 µM PPQ, 125 µM CQ) was 105.59 pmol oocyte-1 h-1 and 76.21 pmol oocyte-1 h-1 and 122.33 pmol oocyte-1 h-1 and the “PfCRTDd2_F145I-mediated PPQ transport” value (500 µM PPQ, 200 µM CQ) was 62.06 pmol oocyte-1 h-1 and 101.24 pmol oocyte-1 h-1.
